Patent US6355799B1, “Substituted benzene compounds, process for their preparation, and herbicidal and defoliant compositions containing them” (ISK Americas Incorporated, priority 1997, dated 2002)

Legend:
Assay type in all cases: in vivo
[1] = system: upland rice (Oryza sp., var. Tebonnet, RICE); assay: Pre-emerge test, crop safety; settings: for Pre-emerge Herbicidal Activity RICE: crop damage rating 0-100, 14 days after application; for phytotoxicity rating RICE (crop damage): pre-emerge, 14 days after application, scale 0-100
Method in brief: (§1)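 Visual ratings on a 0-100 scale (0 no damage, 100 all plants dead) were taken at 14 days after treatment. Rates of 15-1000 g ai/ha in acetone, 187 l/ha, were sprayed onto soil one day after planting (pre-emerge) or onto 2-3 leaf plants with 0.25% v/v surfactant (post-emerge).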

[2] = system: field corn (Zea mays L., var. Dekalb 535, CORN); assay: Pre-emerge test, crop safety; settings: for Pre-emerge Herbicidal Activity CORN: crop damage rating 0-100, 14 days after application; for phytotoxicity rating CORN (crop damage): pre-emerge, 14 days after application, scale 0-100
Method in brief: as §1

[3] = system: upland rice (Oryza sp., var. Tebonnet, RICE); assay: Post-emerge test, crop safety; settings: post-emerge, 14 days after application, rating scale 0-100
Method in brief: (§2)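 Compounds in acetone were track-sprayed at 187 l/ha, 15–1000 g ai/ha, onto sandy loam pots. Pre-emerge seeds were sown one day before spraying, with surface watering afterwards. Post-emerge plants were at the 2–3 leaf stage and sprayed with 0.25% v/v non-ionic surfactant. Injury was rated 0–100 at 14 days.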

[4] = system: field corn (Zea mays L., var. Dekalb 535, CORN); assay: Post-emerge test, crop safety; settings: post-emerge, 14 days after application, rating scale 0-100
Method in brief: as §2

[5] = system: velvetleaf (Abutilon theophrasti, ABUTH); assay: Pre-emerge test, greenhouse herbicide activity screening; settings: for Pre-emerge Herbicidal Activity ABUTH: phytotoxicity rating 0-100, 14 days after application; for phytotoxicity rating ABUTH: pre-emerge, 14 days after application, scale 0-100
Method in brief: as §2

[6] = system: ivyleaf morningglory (Ipomoea hederacea, IPOHE); assay: as above; settings: for Pre-emerge Herbicidal Activity IPOHE: phytotoxicity rating 0-100, 14 days after application; for phytotoxicity rating IPOHE: pre-emerge, 14 days after application, scale 0-100
Method in brief: as §2

[7] = system: green foxtail (Setaria viridis, SETVI); assay: as above; settings: for Pre-emerge Herbicidal Activity SETVI: phytotoxicity rating 0-100, 14 days after application; for phytotoxicity rating SETVI: pre-emerge, 14 days after application, scale 0-100
Method in brief: as §2

[8] = system: lambsquarters (Chenopodium album, CHEAL); assay: as above; settings: for Pre-emerge Herbicidal Activity CHEAL: phytotoxicity rating 0-100, 14 days after application; for phytotoxicity rating CHEAL: pre-emerge, 14 days after application, scale 0-100
Method in brief: as §2

[9] = system: barnyardgrass (Echinochloa crus-galli, ECHCG); assay: as above; settings: for Pre-emerge Herbicidal Activity ECHCG: phytotoxicity rating 0-100, 14 days after application; for phytotoxicity rating ECHCG: pre-emerge, 14 days after application, scale 0-100
Method in brief: as §2

[10] = system: johnsongrass (Sorghum halepense, SORHA); assay: as above; settings: for Pre-emerge Herbicidal Activity SORHA: phytotoxicity rating 0-100, 14 days after application; for phytotoxicity rating SORHA: pre-emerge, 14 days after application, scale 0-100
Method in brief: as §2

[11] = system: large crabgrass (Digitaria sanguinalis, DIGSA); assay: as above; settings: for Pre-emerge Herbicidal Activity DIGSA: phytotoxicity rating 0-100, 14 days after application; for phytotoxicity rating DIGSA: pre-emerge, 14 days after application, scale 0-100
Method in brief: as §2

[12] = system: sicklepod (Cassia obtusifolia, CASOB); assay: as above; settings: for Pre-emerge Herbicidal Activity CASOB: phytotoxicity rating 0-100, 14 days after application; for phytotoxicity rating CASOB: pre-emerge, 14 days after application, scale 0-100
Method in brief: as §2

[13] = system: velvetleaf (Abutilon theophrasti, ABUTH); assay: Post-emerge test, greenhouse herbicide activity screening; settings: post-emerge, 14 days after application, rating scale 0-100
Method in brief: (§3)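 Rating: 0–100 visual injury, 14 DAA. Application: acetone, 187 l/ha, 15–1000 g ai/ha, flat-fan track sprayer with nozzle 40–45 cm above soil or canopy. Post-emerge runs used 0.25% v/v surfactant on 2–3 leaf plants.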

[14] = system: ivyleaf morningglory (Ipomoea hederacea, IPOHE); assay: as above; settings: post-emerge, 14 days after application, rating scale 0-100
Method in brief: as §3

[15] = system: green foxtail (Setaria viridis, SETVI); assay: as above; settings: post-emerge, 14 days after application, rating scale 0-100
Method in brief: as §3

[16] = system: redroot pigweed (Amaranthus retroflexus, AMARE); assay: as above; settings: post-emerge, 14 days after application
Method in brief: as §3

[17] = system: lambsquarters (Chenopodium album, CHEAL); assay: as above; settings: post-emerge, 14 days after application, rating scale 0-100
Method in brief: as §3

[18] = system: barnyardgrass (Echinochloa crus-galli, ECHCG); assay: as above; settings: post-emerge, 14 days after application, rating scale 0-100
Method in brief: as §3

[19] = system: johnsongrass (Sorghum halepense, SORHA); assay: as above; settings: post-emerge, 14 days after application, rating scale 0-100
Method in brief: as §3

[20] = system: large crabgrass (Digitaria sanguinalis, DIGSA); assay: as above; settings: post-emerge, 14 days after application, rating scale 0-100
Method in brief: as §3

[21] = system: sicklepod (Cassia obtusifolia, CASOB); assay: as above; settings: post-emerge, 14 days after application, rating scale 0-100
Method in brief: as §3

[22] = system: redroot pigweed (Amaranthus retroflexus, AMARE); assay: Pre-emerge test, greenhouse herbicide activity screening; settings: for Pre-emerge Herbicidal Activity AMARE: phytotoxicity rating 0-100, 14 days after application; for phytotoxicity rating AMARE: pre-emerge, 14 days after application, scale 0-100
Method in brief: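 Herbicidal damage is scored 0 (none) to 100 (complete plant death) two weeks after a simulated field spray. Rates span 15–1000 g ai/ha, delivered in acetone at 187 l/ha. For post-emergence treatments, plants have 2–3 leaves and the spray carries 0.25% v/v non-ionic surfactant.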

[23] = 250 g ai/ha, rating scale 0-100

Cn1c(C(F)(F)F)cc(=O)n(-c2c(F)cc(Cl)c(Oc3ncccc3[N+](=O)[O-])c2NC(=O)c2ccc3ccccc3c2)c1=O [2-199]
Pre-emerge Herbicidal Activity RICE ([1]; 63 g ai/ha): 99
Pre-emerge Herbicidal Activity RICE ([1]; 250 g ai/ha): 100
Pre-emerge Herbicidal Activity CORN ([2]; 63 g ai/ha): 95
Pre-emerge Herbicidal Activity CORN ([2]; 250 g ai/ha): 100
phytotoxicity rating RICE (crop damage) ([3]; 63 g ai/ha): 80
phytotoxicity rating RICE (crop damage) ([3]; 250 g ai/ha): 90
phytotoxicity rating CORN (crop damage) ([4]; 63 g ai/ha): 30
phytotoxicity rating CORN (crop damage) ([4]; 250 g ai/ha): 90
Pre-emerge Herbicidal Activity ABUTH ([5]; 63 g ai/ha): 100
Pre-emerge Herbicidal Activity ABUTH ([5]; 250 g ai/ha): 100
Pre-emerge Herbicidal Activity IPOHE ([6]; 63 g ai/ha): 100
Pre-emerge Herbicidal Activity IPOHE ([6]; 250 g ai/ha): 100
Pre-emerge Herbicidal Activity SETVI ([7]; 63 g ai/ha): 100
Pre-emerge Herbicidal Activity SETVI ([7]; 250 g ai/ha): 100
Pre-emerge Herbicidal Activity CHEAL ([8]; 63 g ai/ha): 100
Pre-emerge Herbicidal Activity CHEAL ([8]; 250 g ai/ha): 100
Pre-emerge Herbicidal Activity ECHCG ([9]; 63 g ai/ha): 99
Pre-emerge Herbicidal Activity ECHCG ([9]; 250 g ai/ha): 100
Pre-emerge Herbicidal Activity SORHA ([10]; 63 g ai/ha): 100
Pre-emerge Herbicidal Activity SORHA ([10]; 250 g ai/ha): 100
Pre-emerge Herbicidal Activity DIGSA ([11]; 63 g ai/ha): 100
Pre-emerge Herbicidal Activity DIGSA ([11]; 250 g ai/ha): 100
Pre-emerge Herbicidal Activity CASOB ([12]; 63 g ai/ha): 100
Pre-emerge Herbicidal Activity CASOB ([12]; 250 g ai/ha): 100
phytotoxicity rating ABUTH ([13]; 63 g ai/ha): 100
phytotoxicity rating ABUTH ([13]; 250 g ai/ha): 100
phytotoxicity rating IPOHE ([14]; 63 g ai/ha): 100
phytotoxicity rating IPOHE ([14]; 250 g ai/ha): 100
phytotoxicity rating SETVI ([15]; 63 g ai/ha): 50
phytotoxicity rating SETVI ([15]; 250 g ai/ha): 90
phytotoxicity rating AMARE ([16]; 63 g ai/ha, rating scale 0-100 (0 no damage, 100 complete death)): 95
phytotoxicity rating AMARE [16, 23]: 100
phytotoxicity rating CHEAL ([17]; 63 g ai/ha): 100
phytotoxicity rating CHEAL ([17]; 250 g ai/ha): 100
phytotoxicity rating ECHCG ([18]; 63 g ai/ha): 60
phytotoxicity rating ECHCG ([18]; 250 g ai/ha): 100
phytotoxicity rating SORHA ([19]; 63 g ai/ha): 40
phytotoxicity rating SORHA ([19]; 250 g ai/ha): 95
phytotoxicity rating DIGSA ([20]; 63 g ai/ha): 30
phytotoxicity rating DIGSA ([20]; 250 g ai/ha): 95
phytotoxicity rating CASOB ([21]; 63 g ai/ha): 100
phytotoxicity rating CASOB ([21]; 250 g ai/ha): 100
Pre-emerge Herbicidal Activity AMARE ([22]; 63 g ai/ha): 100
Pre-emerge Herbicidal Activity AMARE ([22]; 250 g ai/ha): 100

CCOC(=O)C(C)SCC(=O)Nc1c(OC)c(Cl)cc(F)c1-n1c(=O)cc(C(F)(F)F)n(C)c1=O (stereo not shown) [2-171]
phytotoxicity rating RICE (crop damage) ([1]; 63 g ai/ha): 0
phytotoxicity rating RICE (crop damage) ([1]; 250 g ai/ha): 10
phytotoxicity rating CORN (crop damage) ([2]; 63 g ai/ha): 0
phytotoxicity rating CORN (crop damage) ([2]; 250 g ai/ha): 0
RICE phytotoxicity rating (crop damage) ([3]; 63 g ai/ha): 0
RICE phytotoxicity rating (crop damage) ([3]; 250 g ai/ha): 10
CORN phytotoxicity rating (crop damage) ([4]; 63 g ai/ha): 0
CORN phytotoxicity rating (crop damage) ([4]; 250 g ai/ha): 10
phytotoxicity rating ABUTH ([5]; 63 g ai/ha): 90
phytotoxicity rating ABUTH ([5]; 250 g ai/ha): 100
phytotoxicity rating IPOHE ([6]; 63 g ai/ha): 10
phytotoxicity rating IPOHE ([6]; 250 g ai/ha): 60
phytotoxicity rating SETVI ([7]; 63 g ai/ha): 30
phytotoxicity rating SETVI ([7]; 250 g ai/ha): 90
phytotoxicity rating CHEAL ([8]; 63 g ai/ha): 70
phytotoxicity rating CHEAL ([8]; 250 g ai/ha): 100
phytotoxicity rating ECHCG ([9]; 63 g ai/ha): 0
phytotoxicity rating ECHCG ([9]; 250 g ai/ha): 10
phytotoxicity rating SORHA ([10]; 63 g ai/ha): 10
phytotoxicity rating SORHA ([10]; 250 g ai/ha): 30
phytotoxicity rating DIGSA ([11]; 63 g ai/ha): 20
phytotoxicity rating DIGSA ([11]; 250 g ai/ha): 80
phytotoxicity rating CASOB ([12]; 63 g ai/ha): 10
phytotoxicity rating CASOB ([12]; 250 g ai/ha): 30
ABUTH phytotoxicity rating ([13]; 63 g ai/ha): 60
ABUTH phytotoxicity rating ([13]; 250 g ai/ha): 100
IPOHE phytotoxicity rating ([14]; 63 g ai/ha): 60
IPOHE phytotoxicity rating ([14]; 250 g ai/ha): 100
SETVI phytotoxicity rating ([15]; 63 g ai/ha): 0
SETVI phytotoxicity rating ([15]; 250 g ai/ha): 10
AMARE phytotoxicity rating ([16]; 63 g ai/ha, rating scale 0-100): 30
AMARE phytotoxicity rating [16, 23]: 50
CHEAL phytotoxicity rating ([17]; 63 g ai/ha): 40
CHEAL phytotoxicity rating ([17]; 250 g ai/ha): 90
ECHCG phytotoxicity rating ([18]; 63 g ai/ha): 0
ECHCG phytotoxicity rating ([18]; 250 g ai/ha): 0
SORHA phytotoxicity rating ([19]; 63 g ai/ha): 0
SORHA phytotoxicity rating ([19]; 250 g ai/ha): 10
DIGSA phytotoxicity rating ([20]; 63 g ai/ha): 0
DIGSA phytotoxicity rating ([20]; 250 g ai/ha): 10
CASOB phytotoxicity rating ([21]; 63 g ai/ha): 30
CASOB phytotoxicity rating ([21]; 250 g ai/ha): 40
phytotoxicity rating AMARE ([22]; 63 g ai/ha): 50
phytotoxicity rating AMARE ([22]; 250 g ai/ha): 100
